Here are results for three compounds from ChEMBL document CHEMBL5143725, “Optimization of TEAD P-Site Binding Fragment Hit into In Vivo Active Lead MSC-4106” (J Med Chem, 2022).

Series [1] can be described thus: Inhibition of YAP/TAZ-TEAD interaction in human SK-HEP1 cells incubated for 24 hrs by luciferase reporter gene assay. The format is cell-based. (In a reporter assay the amount or activity of a reporter protein is the signal.)
Series [2] has as its target T1, Transcriptional enhancer factor TEF-1 (Homo sapiens, UniProt P28347). Put plainly: Binding affinity to human TEAD1 (209 to 426 residues) expressed in Escherichia coli BL21 Star (DE3) by surface plasmon resonance assay.
Series [3] addresses T2, Transcriptional enhancer factor TEF-4 (Homo sapiens, UniProt Q15562). Put plainly: Binding affinity to human TEAD2 (217 to 447 residues) expressed in Escherichia coli BL21 Star (DE3) by surface plasmon resonance assay.
The target in series [4] is T3, Transcriptional enhancer factor TEF-5 (Homo sapiens, UniProt Q99594). Put plainly: Binding affinity to human TEAD3 (216 to 435 residues) expressed in Escherichia coli BL21 Star (DE3) by surface plasmon resonance assay. A general note: Surface plasmon resonance follows binding to a sensor surface in real time, without labels.
T3 sequence (Q99594 whole entry, the tested form may be a part): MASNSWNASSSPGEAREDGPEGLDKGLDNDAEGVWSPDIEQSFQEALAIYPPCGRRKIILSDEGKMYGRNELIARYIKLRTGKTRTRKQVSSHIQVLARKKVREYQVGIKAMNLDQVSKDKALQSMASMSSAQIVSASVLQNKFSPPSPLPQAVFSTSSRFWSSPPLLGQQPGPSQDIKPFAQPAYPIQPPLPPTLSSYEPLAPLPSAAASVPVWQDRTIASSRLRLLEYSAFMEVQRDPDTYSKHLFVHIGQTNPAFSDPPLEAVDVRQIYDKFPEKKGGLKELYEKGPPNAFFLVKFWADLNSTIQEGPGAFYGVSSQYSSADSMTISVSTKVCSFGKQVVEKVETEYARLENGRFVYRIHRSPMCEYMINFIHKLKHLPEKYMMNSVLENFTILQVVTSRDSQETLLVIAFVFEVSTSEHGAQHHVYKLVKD
The target in series [5] is T4, Transcriptional enhancer factor TEF-3 (Homo sapiens, UniProt Q15561). Put plainly: Binding affinity to human TEAD4 (217 to 434 residues) expressed in Escherichia coli BL21 Star (DE3) by surface plasmon resonance assay.
T4 sequence (Q15561 whole entry, the tested form may be a part): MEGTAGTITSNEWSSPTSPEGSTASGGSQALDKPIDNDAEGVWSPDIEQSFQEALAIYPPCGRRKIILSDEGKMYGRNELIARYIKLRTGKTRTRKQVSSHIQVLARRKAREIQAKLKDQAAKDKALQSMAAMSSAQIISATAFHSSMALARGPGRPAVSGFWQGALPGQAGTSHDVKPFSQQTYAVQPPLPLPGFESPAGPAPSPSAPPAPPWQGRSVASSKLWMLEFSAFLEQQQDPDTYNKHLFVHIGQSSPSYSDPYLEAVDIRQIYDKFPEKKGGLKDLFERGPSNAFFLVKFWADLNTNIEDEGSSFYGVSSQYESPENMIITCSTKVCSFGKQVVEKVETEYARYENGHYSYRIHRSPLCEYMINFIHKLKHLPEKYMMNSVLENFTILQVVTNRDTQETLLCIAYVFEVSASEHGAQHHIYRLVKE
Series [6] addresses T1, Transcriptional enhancer factor TEF-1. Put plainly: Binding affinity to human TEAD1 (209 to 426 residues) expressed in Escherichia coli BL21 Star (DE3) assessed as change in melting temperature incubated for 2 hrs by measuring tryptophane fluorescence by Nano Differential scanning fluorometry. On the technique in general: In DSF a fluorescence change marks the thermal transition of the protein.

For series [7], the target named is T2, Transcriptional enhancer factor TEF-4. Put plainly: Binding affinity to human TEAD2 (217 to 447 residues) expressed in Escherichia coli BL21 Star (DE3) assessed as change in melting temperature incubated for 2 hrs by measuring tryptophane fluorescence by Nano Differential scanning fluorometry.
Series [8] has as its target T3, Transcriptional enhancer factor TEF-5. Put plainly: Binding affinity to human TEAD3 (216 to 435 residues) expressed in Escherichia coli BL21 Star (DE3) assessed as change in melting temperature incubated for 2 hrs by measuring tryptophane fluorescence by Nano Differential scanning fluorometry.
In series [9] the target is T4, Transcriptional enhancer factor TEF-3. Put plainly: Binding affinity to human TEAD4 (217 to 434 residues) expressed in Escherichia coli BL21 Star (DE3) assessed as change in melting temperature incubated for 2 hr by measuring tryptophane fluorescence by Nano Differential scanning fluorometry.
Series [10] concerns the target T1, Transcriptional enhancer factor TEF-1. Put plainly: Inhibition of pSF-CMV-P-FLAG tagged human TEAD1 palmitoylation transfected in HEK293 cells at 10 uM incubated for 6 hrs by Western blot analysis relative to control. Format: cell-based.
Series [11] concerns the target T2, Transcriptional enhancer factor TEF-4. Put plainly: Inhibition of pSF-CMV-P-FLAG tagged human TEAD2 palmitoylation transfected in HEK293 cells at 10 uM incubated for 6 hrs by Western blot analysis relative to control. The format is cell-based.
For series [12], the target named is T3, Transcriptional enhancer factor TEF-5. Put plainly: Inhibition of pSF-CMV-P-FLAG tagged human TEAD3 palmitoylation transfected in HEK293 cells at 10 uM incubated for 6 hrs by Western blot analysis relative to control. Format: cell-based.
Series [13] addresses T4, Transcriptional enhancer factor TEF-3. Put plainly: Inhibition of pSF-CMV-P-FLAG tagged human TEAD4 palmitoylation transfected in HEK293 cells at 10 uM incubated for 6 hrs by Western blot analysis relative to control. The format is cell-based.
Series [14] has as its target T3, Transcriptional enhancer factor TEF-5. Put plainly: Inhibition of pSF-CMV-P-FLAG tagged human TEAD3 palmitoylation transfected in HEK293 cells at 1 uM incubated for 6 hrs by Western blot analysis relative to control. The format is cell-based.
The test system of another series is SW-620. Put plainly: Cytotoxicity against YAP/TAZ knockout human SW620 cells assessed as cell viability measured for 4 days by celltiter-glo assay. Particulars: SW-620, 96 h.
Series [15] is described as follows: Inhibition of cysteine-rich angiogenic inducer 61 expression in human SK-HEP1 cells incubated for 96 hrs by ELISA method. The note with it: SK-HEP1, 96 h.
A short description of series [16]: Inhibition of connective tissue growth factor expression in human SK-HEP1 cells incubated for 96 hrs by ELISA method. Particulars: SK-HEP1, 96 h.
Series [17] is described as follows: Inhibition of cysteine-rich angiogenic inducer 61 expression in human NCI-H226 cells incubated for 96 hrs by ELISA method. The note with it: NCI-H226, 96 h.
Series [18] can be described thus: Inhibition of connective tissue growth factor expression in human NCI-H226 cells incubated for 96 hrs by ELISA method. The note with it: NCI-H226, 96 h.
In series [19] the test system is NCI-H226. Put plainly: In vivo antitumor activity against human NCI-H226 cells xenografted in mouse model assessed as tumor growth inhibition at 100 mg/kg, po qd measured after 32 days. The format is functional, organism-based. The note with it: time 32.0 day.
The target of series [20] is T2, Transcriptional enhancer factor TEF-4. Put plainly: Binding affinity to human TEAD2 (217 to 447 residues) expressed in Escherichia coli BL21 Star (DE3) assessed as change in melting temperature incubated for 2 hrs measuring scattering fluorescence by Nano Differential scanning fluorometry.
Series [21] concerns the target T1, Transcriptional enhancer factor TEF-1. Particulars: HEK293, dose 100.0 nM, time 6.0 hrs.
The test system of series [22] is NCI-H226. Put plainly: Cytotoxicity against human NCI-H226 cells assessed as cell viability at 10 uM measured for 7 days by celltiter-glo assay. Format: functional, cell-based. Particulars: NCI-H226, 168 h.
Series [23] addresses T1, Transcriptional enhancer factor TEF-1. Put plainly: Binding affinity to human TEAD1 (209 to 426 residues) expressed in Escherichia coli BL21 Star (DE3) assessed as change in melting temperature incubated for 2 hrs by measuring scattering fluorescence by Nano Differential scanning fluorometry.
Series [24] concerns the target T3, Transcriptional enhancer factor TEF-5. Put plainly: Binding affinity to human TEAD3 (216 to 435 residues) expressed in Escherichia coli BL21 Star (DE3) assessed as change in melting temperature incubated for 2 hrs by measuring scattering fluorescence by Nano Differential scanning fluorometry.
Series [25] is described as follows: Microsomal stability in human hepatocyte measured per 10^6 cells. The format is ADME, cell-based. Particulars: hepatocytes.
Series [26] can be described thus: Microsomal stability in mouse hepatocyte measured per 10^6 cells. The format is ADME, cell-based. Particulars: hepatocytes.

Activity calls are given as the source filed them. The calls are words filed in the database; no cut-off is given here. Some results are limits rather than exact numbers.

T2 sequence (Q15562 whole entry, the tested form may be a part): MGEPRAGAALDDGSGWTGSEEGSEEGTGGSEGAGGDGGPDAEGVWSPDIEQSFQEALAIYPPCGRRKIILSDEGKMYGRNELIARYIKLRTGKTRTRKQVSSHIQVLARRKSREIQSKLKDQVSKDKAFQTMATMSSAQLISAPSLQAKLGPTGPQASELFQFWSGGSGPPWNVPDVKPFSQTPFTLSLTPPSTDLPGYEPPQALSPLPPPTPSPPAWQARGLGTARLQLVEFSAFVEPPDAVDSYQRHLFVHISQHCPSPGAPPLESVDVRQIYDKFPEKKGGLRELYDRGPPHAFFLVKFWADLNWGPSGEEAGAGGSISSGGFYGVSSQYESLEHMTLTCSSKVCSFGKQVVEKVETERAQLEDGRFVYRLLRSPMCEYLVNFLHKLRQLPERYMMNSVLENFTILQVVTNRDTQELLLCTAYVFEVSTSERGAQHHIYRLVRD
T1 sequence (P28347 whole entry, the tested form may be a part): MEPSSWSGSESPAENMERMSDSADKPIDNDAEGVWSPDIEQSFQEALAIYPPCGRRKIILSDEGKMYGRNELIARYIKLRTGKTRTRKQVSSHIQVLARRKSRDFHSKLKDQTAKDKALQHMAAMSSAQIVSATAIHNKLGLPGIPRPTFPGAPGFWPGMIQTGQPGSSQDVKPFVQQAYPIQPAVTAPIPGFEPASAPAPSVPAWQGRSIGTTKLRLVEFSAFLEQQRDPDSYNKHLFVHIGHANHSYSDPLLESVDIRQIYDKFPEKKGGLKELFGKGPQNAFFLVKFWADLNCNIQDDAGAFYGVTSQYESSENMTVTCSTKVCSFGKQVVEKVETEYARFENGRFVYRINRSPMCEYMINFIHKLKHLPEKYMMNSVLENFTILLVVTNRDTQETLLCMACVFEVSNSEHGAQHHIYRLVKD

By IC50 is commonly meant the concentration at which inhibition is half-maximal. What is called Kd is a measure of binding affinity in units of concentration. One may read the ΔTm as the shift of the melting midpoint relative to a reference. As usually defined, the inhibition is how much of the control response was suppressed. For the compound `Cn1cc2c3cc(C(=O)O)ccc3n(-c3ccc(C(F)(F)F)cc3)c2n1`, the IC50 in [1] is 4 nM; with SW-620, above 30000 nM; in [15], 24 nM; in series [16], 10 nM; in [17] it was 13 nM; in series [18] it was 11 nM. The Kd in series [2] was 120 nM; in series [3] it was 4600 nM; in series [4], 1400 nM; in series [5] it was 5400 nM. In addition, the ΔTm in series [6] is 13.4 °C; in series [7] it was -3.7 °C; in [8] it was 5.1 °C; in [9] it was 0.4 °C; in [20] it was 3.7 °C. Further, the inhibition came to 90% in series [10]; 24% in [11]; 81% in series [12]; 12% in [13]; 3.8% in [14]; 55.7% in series [21]. Moreover, the result with NCI-H226 [19] was Active.
As for `Cc1nccnc1-c1nn2c(=O)cc(-c3ccc(C4CCCCC4)cc3)[nH]c2c1C(=O)N1CC(CF)C1`, the IC50 in series [1] is 36 nM; with NCI-H226 [22], 82 nM. Further, the thermal shift (ΔTm) was 14.9 °C in series [9], 7.6 °C in series [23], 9.5 °C in [20] and 6.9 °C in [24]. Besides, the inhibition is 84% in series [10], 86% in [11], 91% in series [12] and 88% in [13].
In series [1], `C#CCn1cc2c3cc(C(=O)O)ccc3n(-c3ccc(C(F)(F)F)cc3)c2n1` displayed a 50% inhibitory concentration (IC50) of 4 nM. Further, the Stability in [25] and in series [26] was above 20 µL/min in each case.
